molecular target: T1, Human BCL6 protein (N-terminal HiBiT tagged BCL6 in HT1080 cells) (Homo sapiens, UniProt P41182+Q96SW2); test: HiBiT based BCL6 degradation assay; assay type: cell-based; settings: HT1080 cells expressing N-terminal HiBiT tagged BCL6; 5 hours incubation; BCL6 degradation normalized with DMSO control
T1 construct: Human BCL6 protein coding open reading frame; expressed in transfected cells; host or cells: HT1080 (ATCC CCL-121), stably transduced with lentivirus pLV-UBC-N-HiBiT-BCL6-PGK-puro
In short: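 HT1080 cells stably expressing N-terminal HiBiT-BCL6 were treated with compound dilution series for 5 h at 37° C. in RPMI 1640 with 10% FBS. HiBiT lytic luminescence read after 15 min; degradation normalized to DMSO, with curves fitted by four-parameter logistic model.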

| SMILES | Ymin (5 hr) |
| --- | --- |
| CNC(=O)COc1cc2cc(Nc3nc(NCc4ccc(CNc5ccc6c(C7CCC(=O)NC7=O)nn(C)c6c5)cc4)ncc3Cl)ccc2n(C)c1=O (stereo not shown) [Compound 315, 2-((6-((5-chloro-2-((4-(((3-(2,6-dioxopiperidin-3-yl)-1-methyl-1H-indazol-6-yl)amino)methyl)benzyl)amino)pyrimidin-4-yl)amino)-1-methyl-2-oxo-1,2-dihydroquinolin-3-yl)oxy)-N-methylacetamide] | ++ (50% < Ymin ≤ 70%) |
| CNC(=O)COc1cc2cc(Nc3nc(N4CCC(OC5CCN(c6cccc7c(C8CCC(=O)NC8=O)nn(C)c67)CC5)CC4)ncc3Cl)ccc2n(C)c1=O (stereo not shown) [Compound 316, 2-((6-((5-chloro-2-(4-((1-(3-(2,6-dioxopiperidin-3-yl)-1-methyl-1H-indazol-7-yl)piperidin-4-yl)oxy)piperidin-1-yl)pyrimidin-4-yl)amino)-1-methyl-2-oxo-1,2-dihydroquinolin-3-yl)oxy)-N-methylacetamide] | ++++ (Ymin ≤ 25%) |
| CNC(=O)COc1cc2cc(Nc3nc(N4CCO[C@H](COc5ccc6c(C7CCC(=O)NC7=O)nn(C)c6c5)C4)ncc3Cl)ccc2n(C)c1=O (stereo partly drawn) [Compound 317a, 2-((6-((5-chloro-2-((2S)-2-(((3-(2,6-dioxopiperidin-3-yl)-1-methyl-1H-indazol-6-yl)oxy)methyl)morpholino)pyrimidin-4-yl)amino)-1-methyl-2-oxo-1,2-dihydroquinolin-3-yl)oxy)-N-methylacetamide] | +++ (25% < Ymin ≤ 50%) |
| CNC(=O)COc1cc2cc(Nc3nc(NCc4ccc(CNc5cccc6c(C7CCC(=O)NC7=O)nn(C)c56)cc4)ncc3Cl)ccc2n(C)c1=O (stereo not shown) [Compound 318, 2-((6-((5-chloro-2-((4-(((3-(2,6-dioxopiperidin-3-yl)-1-methyl-1H-indazol-7-yl)amino)methyl)benzyl)amino)pyrimidin-4-yl)amino)-1-methyl-2-oxo-1,2-dihydroquinolin-3-yl)oxy)-N-methylacetamide] | ++ (50% < Ymin ≤ 70%) |
| CNC(=O)COc1cc2cc(Nc3nc(N4CCC(CCCCOc5ccc6c(C7CCC(=O)NC7=O)nn(C)c6c5)CC4)ncc3Cl)ccc2n(C)c1=O (stereo not shown) [Compound 319, 2-((6-((5-chloro-2-(4-(4-((3-(2,6-dioxopiperidin-3-yl)-1-methyl-1H-indazol-6-yl)oxy)butyl)piperidin-1-yl)pyrimidin-4-yl)amino)-1-methyl-2-oxo-1,2-dihydroquinolin-3-yl)oxy)-N-methylacetamide] | ++ (50% < Ymin ≤ 70%) |
| CNC(=O)COc1cc2cc(Nc3nc(N4CCC(CC5CCN(c6cccc7c(C8CCC(=O)NC8=O)nn(C)c67)C5)CC4)ncc3Cl)ccc2n(C)c1=O (stereo not shown) [Compound 320, 2-((6-((5-chloro-2-(4-((1-(3-(2,6-dioxopiperidin-3-yl)-1-methyl-1H-indazol-7-yl)pyrrolidin-3-yl)methyl)piperidin-1-yl)pyrimidin-4-yl)amino)-1-methyl-2-oxo-1,2-dihydroquinolin-3-yl)oxy)-N-methylacetamide] | +++ (25% < Ymin ≤ 50%) |
| CNC(=O)COc1cc2cc(Nc3nc(N4CCN(CC5CCN(C(=O)c6ccc7c(C8CCC(=O)NC8=O)nn(C)c7c6)CC5)CC4)ncc3Cl)ccc2n(C)c1=O (stereo not shown) [Compound 321, 2-((6-((5-chloro-2-(4-((1-(3-(2,6-dioxopiperidin-3-yl)-1-methyl-1H-indazole-6-carbonyl)piperidin-4-yl)methyl)piperazin-1-yl)pyrimidin-4-yl)amino)-1-methyl-2-oxo-1,2-dihydroquinolin-3-yl)oxy)-N-methylacetamide] | +++ (25% < Ymin ≤ 50%) |
| CNC(=O)COc1cc2cc(Nc3nc(N4CCC(CN5CCN(C(=O)c6ccc7c(C8CCC(=O)NC8=O)nn(C)c7c6)CC5)CC4)ncc3Cl)ccc2n(C)c1=O (stereo not shown) [Compound 322, 2-((6-((5-chloro-2-(4-((4-(3-(2,6-dioxopiperidin-3-yl)-1-methyl-1H-indazole-6-carbonyl)piperazin-1-yl)methyl)piperidin-1-yl)pyrimidin-4-yl)amino)-1-methyl-2-oxo-1,2-dihydroquinolin-3-yl)oxy)-N-methylacetamide] | +++ (25% < Ymin ≤ 50%) |
| CNC(=O)COc1cc2cc(Nc3nc(N4CCN(CC5CCN(C(=O)c6cccc7c(C8CCC(=O)NC8=O)nn(C)c67)CC5)CC4)ncc3Cl)ccc2n(C)c1=O (stereo not shown) [Compound 323, 2-((6-((5-chloro-2-(4-((1-(3-(2,6-dioxopiperidin-3-yl)-1-methyl-1H-indazole-7-carbonyl)piperidin-4-yl)methyl)piperazin-1-yl)pyrimidin-4-yl)amino)-1-methyl-2-oxo-1,2-dihydroquinolin-3-yl)oxy)-N-methylacetamide] | +++ (25% < Ymin ≤ 50%) |
| CNC(=O)COc1cc2cc(Nc3nc(N4CCC(CN5CCN(C(=O)c6cccc7c(C8CCC(=O)NC8=O)nn(C)c67)CC5)CC4)ncc3Cl)ccc2n(C)c1=O (stereo not shown) [Compound 324, 2-((6-((5-chloro-2-(4-((4-(3-(2,6-dioxopiperidin-3-yl)-1-methyl-1H-indazole-7-carbonyl)piperazin-1-yl)methyl)piperidin-1-yl)pyrimidin-4-yl)amino)-1-methyl-2-oxo-1,2-dihydroquinolin-3-yl)oxy)-N-methylacetamide] | +++ (25% < Ymin ≤ 50%) |
| CNC(=O)COc1cc2cc(Nc3nc(N4C5CCC4CN(CC4CCN(c6cccc7c(C8CCC(=O)NC8=O)nn(C)c67)CC4)C5)ncc3Cl)ccc2n(C)c1=O (stereo not shown) [Compound 325, 2-((6-((5-chloro-2-(3-((1-(3-(2,6-dioxopiperidin-3-yl)-1-methyl-1H-indazol-7-yl)piperidin-4-yl)methyl)-3,8-diazabicyclo[3.2.1]octan-8-yl)pyrimidin-4-yl)amino)-1-methyl-2-oxo-1,2-dihydroquinolin-3-yl)oxy)-N-methylacetamide] | +++ (25% < Ymin ≤ 50%) |

Next, values leading:

| Ymin (5 hr) | SMILES |
| --- | --- |
| +++ (25% < Ymin ≤ 50%) | CNC(=O)COc1cc2cc(Nc3nc(N4CCC5CN(c6cccc7c(C8CCC(=O)NC8=O)nn(C)c67)CC5C4)ncc3Cl)ccc2n(C)c1=O (stereo not shown) [Compound 326, 2-((6-((5-chloro-2-(2-(3-(2,6-dioxopiperidin-3-yl)-1-methyl-1H-indazol-7-yl)octahydro-5H-pyrrolo[3,4-c]pyridin-5-yl)pyrimidin-4-yl)amino)-1-methyl-2-oxo-1,2-dihydroquinolin-3-yl)oxy)-N-methylacetamide] |
| ++++ (Ymin ≤ 25%) | CNC(=O)COc1cc2cc(Nc3nc(N4CCC(C(=O)N5CCN(c6cccc7c(C8CCC(=O)NC8=O)nn(C)c67)CC5)CC4)ncc3Cl)ccc2n(C)c1=O (stereo not shown) [Compound 327, 2-((6-((5-chloro-2-(4-(4-(3-(2,6-dioxopiperidin-3-yl)-1-methyl-1H-indazol-7-yl)piperazine-1-carbonyl)piperidin-1-yl)pyrimidin-4-yl)amino)-1-methyl-2-oxo-1,2-dihydroquinolin-3-yl)oxy)-N-methylacetamide] |
| ++++ (Ymin ≤ 25%) | CNC(=O)COc1cc2cc(Nc3nc(N4CCC(C(=O)N5CCN(c6ccc7c(C8CCC(=O)NC8=O)nn(C)c7c6)CC5)CC4)ncc3Cl)ccc2n(C)c1=O (stereo not shown) [Compound 328, 2-((6-((5-chloro-2-(4-(4-(3-(2,6-dioxopiperidin-3-yl)-1-methyl-1H-indazol-6-yl)piperazine-1-carbonyl)piperidin-1-yl)pyrimidin-4-yl)amino)-1-methyl-2-oxo-1,2-dihydroquinolin-3-yl)oxy)-N-methylacetamide] |
| ++ (50% < Ymin ≤ 70%) | CNC(=O)COc1cc2cc(Nc3nc(N4CCCC5(CN(c6ccc7c(C8CCC(=O)NC8=O)nn(C)c7c6)C5)C4)ncc3Cl)ccc2n(C)c1=O (stereo not shown) [Compound 329, 2-((6-((5-chloro-2-(2-(3-(2,6-dioxopiperidin-3-yl)-1-methyl-1H-indazol-6-yl)-2,6-diazaspiro[3.5]nonan-6-yl)pyrimidin-4-yl)amino)-1-methyl-2-oxo-1,2-dihydroquinolin-3-yl)oxy)-N-methylacetamide] |
| ++ (50% < Ymin ≤ 70%) | CNC(=O)COc1cc2cc(Nc3nc(N4CCCC5(CCCN(c6cccc7c(C8CCC(=O)NC8=O)nn(C)c67)C5)C4)ncc3Cl)ccc2n(C)c1=O (stereo not shown) [Compound 330, 2-((6-((5-chloro-2-(8-(3-(2,6-dioxopiperidin-3-yl)-1-methyl-1H-indazol-7-yl)-2,8-diazaspiro[5.5]undecan-2-yl)pyrimidin-4-yl)amino)-1-methyl-2-oxo-1,2-dihydroquinolin-3-yl)oxy)-N-methylacetamide] |
| +++ (25% < Ymin ≤ 50%) | CNC(=O)COc1cc2cc(Nc3nc(N4CCCC5(CCN(c6ccc7c(C8CCC(=O)NC8=O)nn(C)c7c6)C5)C4)ncc3Cl)ccc2n(C)c1=O (stereo not shown) [Compound 331, 2-((6-((5-chloro-2-(2-(3-(2,6-dioxopiperidin-3-yl)-1-methyl-1H-indazol-6-yl)-2,7-diazaspiro[4.5]decan-7-yl)pyrimidin-4-yl)amino)-1-methyl-2-oxo-1,2-dihydroquinolin-3-yl)oxy)-N-methylacetamide] |
| +++ (25% < Ymin ≤ 50%) | CNC(=O)COc1cc2cc(Nc3nc(N4CCC(CC5CCN(c6ccc7c(C8CCC(=O)NC8=O)nn(C)c7c6)C5)CC4)ncc3Cl)ccc2n(C)c1=O (stereo not shown) [Compound 332, 2-((6-((5-chloro-2-(4-((1-(3-(2,6-dioxopiperidin-3-yl)-1-methyl-1H-indazol-6-yl)pyrrolidin-3-yl)methyl)piperidin-1-yl)pyrimidin-4-yl)amino)-1-methyl-2-oxo-1,2-dihydroquinolin-3-yl)oxy)-N-methylacetamide] |
| ++++ (Ymin ≤ 25%) | CNC(=O)COc1cc2cc(Nc3nc(N4CCC(CN5CCN(c6cccc7c(C8CCC(=O)NC8=O)nn(C)c67)CC5)CC4)ncc3Cl)ccc2n(C)c1=O (stereo not shown) [Compound 333, 2-((6-((5-chloro-2-(4-((4-(3-(2,6-dioxopiperidin-3-yl)-1-methyl-1H-indazol-7-yl)piperazin-1-yl)methyl)piperidin-1-yl)pyrimidin-4-yl)amino)-1-methyl-2-oxo-1,2-dihydroquinolin-3-yl)oxy)-N-methylacetamide] |

Reference: US20250270191A1, “QUINOLONE BCL6 BIFUNCTIONAL DEGRADERS” (Treeline Biosciences, Inc., priority 2022, published 2025)
